Values of other authors, collected in US20150335678A1, “METHOD OF ACTIVATING STEM CELLS IN AN ANIMAL AND THE USE OF CHLORINE DIOXIDE FOR PREPARING MEDICINES FOR ACTIVATING STEM CELLS IN AN ANIMAL” (priority 2012, published 2015).
Read-outs that look alike come from different tables or passages of the source.

What was measured:
mouse = mouse per os; cited from earlier work
rat = conditions: cited from earlier work

**Q.** Which LD50 (mouse) does the source give for stable chlorine dioxide here?
**A.** The LD50 was over 10000 mg/kg.

**Q.** What does the source list for `[Na+].[O-][Cl+][O-]` [NaClO2]?
**A.** accumulative toxicity classification of aqueous solution (rat; rat, in vivo): non-obvious accumulative toxic; toxicity classification of aqueous solution (rat; rat, in vivo): actually non-toxic

**Q.** Which results are given for `[Na+].[O-][Cl+2]([O-])[O-]` [NaClO3]?
**A.** accumulative toxicity classification of aqueous solution (rat; ClO2 276.5 mg/L, NaClO2 200 mg/L, NaClO3): non-obvious accumulative toxic; toxicity classification of aqueous solution (rat; ClO2 276.5 mg/L, NaClO2 and NaClO3 200 mg/L, ClO2 mixed solution total concentration 553 mg/L): actually non-toxic
